The subject of assay [1] is rat primary hepatocytes. In words: Post-thaw cell viability after cryopreservation (Live-Dead staining). The note with it: for post-thaw cell viability vs control: 20% DMSO or 20% glycerol in DMEM as CPA, one week at −80° C., 24 hours recuperation, FIG. 2 and 3; for cell survival with glycerol as the CPA compared with DMSO: treated cells, glycerol vs DMSO as cryoprotectant. The assay is classed as cell-based.
Method: Cryopreservation of Treated and Control Samples. After treatment of cell cultures for 12 hours, samples were removed from the incubator and placed on ice to reduce the cell temperature to 4° C. to minimize the toxicity of the cryoprotecting agent (CPA). Two different CPA solutions, 20% dimethyl sulfoxide in DMEM media and 20% glycerol in DMEM media were used. The CPA solution (1 mL) was added to the samples and incubated at 4° C. for 10 minutes to reach equilibrium. Samples were transferred to the CryoMed Control Rate freezer (Thermo Forma, Waltham, Mass.).
The controlled cooling process was initiated at 4° C. and a cooling rate of 1° C./min was maintained until −16° C. followed by a cooling rate of 2° C./min until −36° C./min, and thereafter a cooling rate of 10° C./min until a temperature of −80° C. was achieved. The samples were further maintained at −80° C. for 5 minutes to ensure equilibrium. At the end of the freezing process, the samples were transferred immediately to a −80° C. Revco freezer (Kendro Laboratory, Ashville, N.C.) and stored for a week.
Evaluation of Post-thaw Cell Viability. The cryopreserved samples from the −80° C. freeze were transferred to a sterile glass box and plated in a water bath maintained at 37° C. until the media in the frozen samples completely thawed. At this juncture, the samples were between 5-10° C. Immediately, the CPA containing media in the samples was aspirated to prevent any toxicity to the cells. DMEM (1 mL) was added to the samples and incubated at 37° C. for 10 minutes. After 10 minutes of incubation, the media in the samples was again refreshed in order to remove any remaining traces of CPA. These samples were then placed in the incubator at 37° C., 5% CO2 for 24 hours and allowed to recuperate from the freeze-thaw process.
After 24 hours of recuperation time, cell viability of the samples was determined by using nuclei fluorescence dyes. The samples were washed with 1× PBS solution and incubated with Hoechst Dye (1 μg/mL) and Ethidium Homodimer (2 μM)(Molecular Probes, Eugene, Oreg.) in PBS for 30 minutes. The viability solution was aspirated, and samples were fixed by adding 10% formalin (1 mL) (VWR, West Chester, Pa.) and incubating for 20 minutes. Subsequently, the cell viability was examined with a confocal microscope with DAPI (excitation 358 nm; emission 461 nm) and Texas red (excitation 596 nm; emission 620 nm) filters. The fluorescent images obtained were then analyzed using MetaMorp Imaging System.

Assay [2] deals with rat primary hepatocytes. In words: Cell shrinkage analysis in hypertonic NaCl solution. It counts as cell-based. The note with it: 5M NaCl, 20 minutes; 12 hours treatment; HgCl2 0.1 mM for 5 min; vs control cells; FIG. 1. The procedure: Cell shrinkage analysis. Cell shrinkage analysis was performed on treated and control samples prepared on tissue culture plates as described above. One culture plate at a time was transferred to an Olympus IX70 microscope (Olympus America Inc, Pa.) mounted with a computer interfaced camera (Hamamatsu Corporation, Bridgewater, N.J.). The media from culture plate was aspirated and 1 mL of 5M NaCl solution was added. Response of the cells to the hypertonic NaCl solution was captured at 40× magnification at one minute intervals for 20 minutes. Images were processed using software MetaMorph Imaging System (Molecular Devices, Sunnyvale, Calif.). Using MetaMorp, the variations of the cross-sectional area of the cells at various sites were measured over time to analyze the shrinkage behavior of the cells in the hypertonic solution.

Assay [3] relates to AQP8. In words: Confocal immunofluorescence of AQP8 localization in cultured hepatocytes. The assay is classed as cell-based, rat. As to conditions: hepatocytes treated 12 hours; 100 μM Bt2cAMP or 1 μM glucagon; vs control. The procedure: Confocal immunofluorescence. For confocal immunofluorescence experiments, collagen coated chamber slides were used instead of the tissue culture plates. Hepatocytes (5×10^5) were plated on the collagen-coated chamber slides, and incubated at 37° C. for 4 hours. The cells were then treated with a) Bt2cAMP, b) glucagon and c) normal DMEM media (control) and incubated for 12 hours. After the 12 hours, the cells were fixed with 2% formaldehyde for 10 minutes at room temperature and permeabilized with 0.2% Triton X-100 for 2 minutes. The cells were then treated with a blocking solution containing 3% BSA at room temperature and incubated overnight at 4° C. with goat affinity-purified AQP8 antibody (Santa Cruz Biotechnology Inc., Santa Cruz, Calif.) of dilution 1:50 in PBS. Then, the chamber slides were rinsed with PBS solution and treated with Alexa Flour 488—conjugated donkey anti-goat […] secondary antibody (Invitrogen, Calif.) for 1 hour. The dilution of the secondary antibody used was 1:400 in PBS. Then the cells were treated with 1 μg/mL concentration of Hoechst 33342 (Molecular Probes, Eugene, Oreg.) and mounted with Pro- Long (Molecular Probes, Eugene, Oreg.). Fluorescence localization of the AQP8 was then detected by immersion oil confocal microscopy with 100× magnification lens.

Assay [4] has as its system AQP8. The note with it: cited from earlier work.

Read-outs that look alike come from different tables or passages of the source.

As to `CCCC(=O)Nc1ncnc2c1ncn2[C@@H]1O[C@@H]2COP(=O)(O)O[C@H]2[C@H]1OC(=O)CCC` [Bt2cAMP, sodium (3aR,4R,6R,6aR)-4-(6-butanamido-9H-purin-9-yl)-6-[(butanoyloxy)methyl]-2-oxo-tetrahydro-2H-1,3,5,2λ^5-furo[3,4-d][1,3,2] dioxaphosphol-2-olate], in assay [1], the “post-thaw cell viability vs control” value is listed as “significantly higher than the control” and the “cell survival with glycerol as the CPA compared with DMSO” value is “significant increase in the cell survival”. For the same compound, the “post-thaw cell viability of Bt2cAMP-treated vs glucagon-treated samples” value in assay [1] (12 hrs treatment, most of the culture samples) is reported as “higher cell viability compared to the ones treated with glucagon”. In assay [2], the “cross-sectional area of cells over time (shrinkage) in hypertonic environment” value (shortened to “cross-sectional area of cells over time”) was “significant decrease in their cross-sectional area over time”. The “AQP8 labeling at the cellular membrane” value in assay [3] is recorded as “higher density of AQP8 labeling at the cellular membrane”.
As to `[Cl][Hg][Cl]` [HgCl2], the “post-thaw cell viability vs control” value in assay [1] is listed as “significantly lower cell viability”. The “cross-sectional area of cells over time” value in assay [2] is given as “no significant shrinkage behavior”.
Consider `OCC(O)CO` [glycerol], for which the “post-thaw cell viability by CPA used” value in assay [1] (glycerol as CPA compared to DMSO) was “significantly higher post-thaw cell viability compared to DMSO”.
As to glucagon, in assay [1], the “post-thaw cell viability vs control” value was “significantly higher than the control” and the “cell survival with glycerol as the CPA compared with DMSO” value is reported as “significant increase in the cell survival”. The “cross-sectional area of cells over time” value in assay [2] was “significant decrease in their cross-sectional area over time”. Moreover, in assay [3], the “AQP8 labeling at the cellular membrane” value is “higher density of AQP8 labeling at the cellular membrane”. Also, the “increase in the quantity of AQP8 on cellular membrane” value in assay [4] (treatment of hepatocytes for 16 hours) is 80%. Further, the “increase in the quantity of AQP8 on cellular membrane” value in assay [4] (treatment of hepatocytes for 36 hours) was 120%.

The values above are taken from patent publication US20150024406A1, “INCREASED AQUAPORIN EXPRESSION ON CELLULAR MEMBRANE TO IMPROVE CRYOPRESERVATION EFFICIENCY” (priority 2013, published 2015).
